This is an account of results in patent US6878690B2, “Compounds and methods” (PharmAxis Pty Ltd., priority 2000, dated 2005).

For test [1], the system named is DTH response to 2,4-dinitrofluorobenzene (DNFB). As to the kind of experiment: Delayed-type hypersensitivity (DTH) response to DNFB, ear swelling. Conditions: for Mean percentage decrease in ear swelling in treated animals: versus saline controls; for Mean Difference, Treated: group mean; for Difference (right minus left ear), Treated / Right ear thickness, Treated / Left ear thickness, Treated: individual mice, 24 hours after challenge; for Right ear thickness, Treated: challenged ear; for Left ear thickness, Treated: control (unchallenged) ear. The test is classed as in vivo, Balb/C mice. The text has this:
In the present Example, a murine model of Type IV hypersensitivity or delayed-type hypersensitivity (DTH) response to cutaneous contact with the chemical hapten 2,4-dinitrofluorobenzene (DNFB) (Aldrich Chemical Company Inc, USA) was used as a model to measure the anti-inflammatory effects of compounds of the present invention. Specific pathogen-free 8-12 week old female Balb/C mice, weighing 19-21 g, were sensitised in a similar manner to that described by Klimuk et al., (Klimuk et al., 1999) by applying a solution of DNFB (0.5% in acetone:olive oil (4:1, v/v); 30 microliters,) onto a 2 cm^2 shaved area of the abdomen. After 7 days, the animals were anesthetised with diethyl ether and 8 microliters of DNFB (0.35% in acetone:olive oil (4:1, v/v) was applied to the dorsal and ventral surfaces of the right pinna. Prior to regaining consciousness, the mice were implanted intraperitoneally with Alzet 2001 mini-osmotic pumps (Alza Corp., Palo Alto Calif., USA) containing phosphoric acid mono-[6-(3-hexyloxy-propyl)-3,4,5-trihydroxy-tetrahydro-pyran-2-ylmethyl] ester, sodium salt in normal saline. The dose delivered was 50 mg/kg/day. Control animals for this group received saline delivered in identical mini-osmotic pumps. A second experimental group of mice received phosphoric acid mono-[3-(3,4,5-trihydroxy-6-phosphonooxymethyl-tetrahydro-pyran-2-yl)-propyl] ester disodium salt via one-week delivery Alzet 2001 mini-osmotic pumps implanted intraperitoneally. This compound was delivered at a dose of 40 mg/kg/day. Control animals for this group received saline delivered in identical mini-osmotic pumps. In a third experiment a separate group of mice received (3,4,5-trihydroxy-6-phosphonooxymethyl-tetrahydro-pyran-2-yl)-acetic acid disodium salt via one-week delivery Alzet 2001 mini-osmotic pumps that were placed intraperitoneally. This compound was delivered at 45 mg/kg/day. The control group for this experiment received identical mini-osmotic pumps containing normal saline. In a fourth experiment a group of mice received 3-phenyl-2-[2-(3,4,5-trihydroxy-6-phosphonooxymethyl-tetrahydro-pyran-2-yl)-acetylamino]-propionic acid monosodium salt via one-week delivery Alzet 2001 mini-osmotic pumps that were placed subcutaneously. This compound was delivered at 62 mg/kg/day. The control group for this experiment received identical mini-osmotic pumps containing normal saline. In a fifth experiment a group of mice received hexanoic acid 3-(3,4,5-trihydroxy-6-phosphonooxymethyl-tetrahydro-pyran-2-yl)-propyl ester sodium salt via one-week delivery Alzet 2001 mini-osmotic pumps that were placed subcutaneously. This compound was delivered at 40 mg/kg/day. The control group for this experiment received identical mini-osmotic pumps containing normal saline.
Twenty-four hours after challenge the mice were lightly anesthetised with diethyl ether and the thickness of the left and right pinnae measured (in millimeters) using a dial gauge micrometer (Interapid, Switzerland). Care was taken to measure only the outer two thirds of the ear. The increase in ear thickness initiated by the DTH response was determined by subtracting the measurement of the left ear (untreated) from the right ear (challenged).
In Table 4, values in the columns labeled Left and Right are measurements of ear thickness in millimeters of the control and challenged ears respectively.

Test [2] relates to passively transferred EAE. As to the kind of experiment: Passively transferred EAE induced with concanavalin A stimulated spleen lymphoblasts (Example 24). The test is classed as in vivo, Lewis rats. Also on record: key to Clinical score - Treated, Mean: 0 = asymptomatic to 5 = hind limb paralysis. To be noted: for Clinical score - Treated, Mean: group mean; for Mean maximum clinical score / DI (disease index): treated group. As for the experimental part:
In a similar type of experiment outlined in Example 20, and in order to study the effect of the agents of the present invention in vivo on a disease caused by T lymphocyte migration into a specific tissue, further experiments were performed in a Lewis rat model of passively transferred EAE. Here, myelin basic protein (MBP)-specific T lymphocytes were generated in spleens of Lewis rats that had been immunised with guinea pig MBP in Freund's complete adjuvant. Thus, in this manner donor T lymphocytes were generated from male 12-20 week old Lewis rats weighing 200 to 250 g. These rats were injected intradermally in a footpad of each hind foot with an emulsion of guinea pig myelin basic protein (MBP; prepared according to the method of Deibler et al., 1972; incorporated herein by reference) in Freund's complete adjuvant (0.1 ml). The adjuvant emulsion was prepared by emulsifying equal volumes of a mixture of 85% light mineral oil (0.8417 g/mL (Sigma)) plus 15% mannide monooleate (Sigma) containing Mycobacterium butyricum (4 mg/ml; Difco) and normal saline containing guinea pig myelin basic protein (0.25 mg/ml). Thus, the total dose per rat was 25 micrograms of MBP and 400 micrograms of M. butyricum. Ten days following injection, the rats were euthanased and the spleens removed aseptically by blunt dissection and placed into mixed lymphocyte culture medium. This medium was prepared in the normal fashion from Dulbecco's Modified Eagle's Medium (DMEM; GIBCO, Grand Island, N.Y.) supplemented with glucose (4 g/L), folic acid (6 mg/L), L-asparagine (36 mg/L), sodium bicarbonate (2 g/L), L-arginine (116 mg/L), L-glutamine (2 mM), sodium pyruvate (1 mM), HEPES (10 mM), 2-mercaptoethanol (5×10^−5 M), penicillin, streptomycin, neomycin, and 10% fetal calf serum. A single cell suspension was prepared from the spleens in the usual manner by gently pushing them through a stainless steel screen. The cells were washed twice and cultured asceptically for 72 hours at 37° C. in a humidified atmosphere containing 5% carbon dioxide at a concentration of 2 million cells per milliliter in the presence of concanavalin A (2 microgram/mL). The cells were collected and washed twice in Hanks balanced salt solution. Cells were resuspended in Hanks balanced salt solution and each recipient animal (10-12 weeks old female Lewis rats; 160-180 g) received 40-42.5 million lymphoblasts by lateral tail vein injection in a volume of 0.5 ml.
In a typical experiment 4-5 recipient rats were anesthetised with diethyl ether and implanted with mini-osmotic pumps (Alzet 2001, Alza Corp., Palo Alto Calif., USA) containing the test compound. A second group of 4 animals, the control group, under ether anesthesia, were implanted with Alzet 2001 pumps containing normal saline. Mini-osmotic pumps were implanted three days after cell transfer. Disease severity (clinical score) was scored on an arbitrary scale of severity ranging from 0 to 5 as follows: 0, asymptomatic; 1, flaccid distal half of tail; 2, entire tail flaccid; 3, ataxia, difficulty in righting reflex; 4, hind limb weakness; 5, hind limb paralysis. Mean maximum clinical scores were calculated and the disease index (DI) for each group was calculated as described in Example 20. The results of these experiments are outlined in Tables 6, 7 and 8.

Where [3] appears, read: 40 mg/kg/day, mini-osmotic pump subcutaneously, monosodium salt.
Where [4] appears, read: 40 mg/kg/day, mini-osmotic pump intraperitoneally, disodium salt.
Where [5] appears, read: 50 mg/kg/day, mini-osmotic pump intraperitoneally, monosodium salt.

Several values for one entry are separate records, joined by “and”; a condition that tells them apart may be missing. Identical values can stand only once.

In the case of `CCCCCC(=O)OCCCC1OC(COP(=O)(O)O)C(O)C(O)C1O.[Na]` (stereo not shown) [hexanoic acid 3-(3,4,5-trihydroxy-6-phosphonooxymethyl-tetrahydro-pyran-2-yl)-propyl ester monosodium salt], in test [1] (40 mg/kg/day subcutaneously), the “Mean percentage decrease in ear swelling in treated animals” value (“Mean percentage decrease in ear swelling” for short) is listed as “Mean percentage decrease in ear swelling in treated animals: 47.6%”. The “Mean Difference, Treated” value in test [1] (40 mg/kg/day subcutaneously, saline control mean 0.126) is 0.066 millimeters. Moreover, in test [1] (setting [3]), the “Difference (right minus left ear), Treated” value is 0.07 millimeters (2×) and 0.08 millimeters and 0.05 millimeters and 0.06 millimeters; the “Right ear thickness, Treated” value is 0.29 millimeters (3×) and 0.28 millimeters and 0.27 millimeters; the “Left ear thickness, Treated” value is 0.22 millimeters (2×) and 0.21 millimeters (2×) and 0.23 millimeters.
Take `O=P([O-])([O-])OCCCC1OC(COP(=O)(O)O)C(O)C(O)C1O.[Na+].[Na+]` (stereo not shown) [phosphoric acid mono-[3-(3,4,5-trihydroxy-6-phosphonooxymethyl-tetrahydro-pyran-2-yl)-propyl] ester disodium salt]: in test [1] (40 mg/kg/day intraperitoneally), the “Mean percentage decrease in ear swelling” value is reported as “Mean percentage decrease in ear swelling in treated animals: 30%”. Further, the “Mean Difference, Treated” value in test [1] (40 mg/kg/day intraperitoneally, saline control mean 0.086) is reported as 0.060 millimeters. Moreover, the “Difference (right minus left ear), Treated” value in test [1] (setting [4]) is 0.07 millimeters and 0.03 millimeters and 0.02 millimeters and 0.06 millimeters and 0.12 millimeters. Further, the “Right ear thickness, Treated” value in test [1] (setting [4]) is 0.28 millimeters (2×) and 0.25 millimeters and 0.23 millimeters and 0.33 millimeters. In addition, the “Left ear thickness, Treated” value in test [1] (setting [4]) is 0.21 millimeters (3×) and 0.22 millimeters (2×). In addition, the “Clinical score - Treated, Mean” value in test [2] (day 4, 40 mg/kg/day intraperitoneally) was 0; in test [2] (day 5, 40 mg/kg/day intraperitoneally), 1.375; in test [2] (day 7, 40 mg/kg/day intraperitoneally) it was 2.125; in test [2] (day 8, 40 mg/kg/day intraperitoneally), 1.75; in test [2] (day 9, 40 mg/kg/day intraperitoneally), 0.75; in test [2] (day 10, 40 mg/kg/day intraperitoneally), 0.125. Further, the “Clinical score - Treated” value was 0 in test [2] (day 4, individual rats, 40 mg/kg/day intraperitoneally, scale 0 to 5); 2 (2×) and 0 and 1.5 in test [2] (day 5; individual rats; 40 mg/kg/day intraperitoneally; scale 0 to 5; disodium salt, 40 mg/kg/day)); 2.5 and 1 and 3 and 2 in test [2] (day 7; individual rats; 40 mg/kg/day intraperitoneally; scale 0 to 5; disodium salt, 40 mg/kg/day)); 2 (2×) and 0.5 and 2.5 in test [2] (day 8; individual rats; 40 mg/kg/day intraperitoneally; scale 0 to 5; disodium salt, 40 mg/kg/day)); 1 (3×) and 0 in test [2] (day 9; individual rats; 40 mg/kg/day intraperitoneally; scale 0 to 5; disodium salt, 40 mg/kg/day)); 0 (3×) and 0.5 in test [2] (day 10; individual rats; 40 mg/kg/day intraperitoneally; scale 0 to 5; disodium salt, 40 mg/kg/day)). In addition, the “Mean maximum clinical score” value in test [2] (40 mg/kg/day intraperitoneally, control 3.0) was “clinical score 2.3”. In addition, the “DI (disease index)” value in test [2] (40 mg/kg/day intraperitoneally, control DI 45.0) is given as “DI - 18.6 Mean maximum”.
For the compound `CCCCCCOCCCC1OC(COP(=O)([O-])O)C(O)C(O)C1O.[Na+]` (stereo not shown) [phosphoric acid mono-[6-(3-hexyloxy-propyl)-3,4,5-trihydroxy-tetrahydro-pyran-2-ylmethyl] ester, monosodium salt], in test [1] (50 mg/kg/day intraperitoneally), the “Mean percentage decrease in ear swelling” value is listed as “Mean percentage decrease in ear swelling in treated animals: 36.7%”. The “Mean Difference, Treated” value in test [1] (50 mg/kg/day intraperitoneally, saline control mean 0.098) is 0.062 millimeters. Moreover, the “Difference (right minus left ear), Treated” value in test [1] (setting [5]) was 0.03 millimeters and 0.05 millimeters (2×) and 0.08 millimeters and 0.1 millimeters. Also, in test [1] (setting [5]), the “Right ear thickness, Treated” value was 0.25 millimeters (2×) and 0.26 millimeters and 0.3 millimeters and 0.32 millimeters. Also, the “Left ear thickness, Treated” value in test [1] (setting [5]) is 0.22 millimeters (3×) and 0.21 millimeters and 0.2 millimeters. Besides, the “Clinical score - Treated, Mean” value in test [2] (day 5, 50 mg/kg/day subcutaneously) came out at 1; in test [2] (day 6, 50 mg/kg/day subcutaneously), 2.75; in test [2] (day 7, 50 mg/kg/day subcutaneously), 2.5; in test [2] (day 8, 50 mg/kg/day subcutaneously), 2.25; in test [2] (day 9, 50 mg/kg/day subcutaneously) it was 1.25; in test [2] (day 10, 50 mg/kg/day subcutaneously), 0.5. The “Clinical score - Treated” value is 0.5 (2×) and 1 and 2 in test [2] (day 5, individual rats, 50 mg/kg/day subcutaneously, scale 0 to 5, monosodium salt, 50 mg/kg/day); 3 and 2 (2×) and 4 in test [2] (day 6, individual rats, 50 mg/kg/day subcutaneously, scale 0 to 5, monosodium salt, 50 mg/kg/day); 2 (3×) and 4 in test [2] (day 7, individual rats, 50 mg/kg/day subcutaneously, scale 0 to 5, monosodium salt, 50 mg/kg/day); 2 (3×) and 3 in test [2] (day 8, individual rats, 50 mg/kg/day subcutaneously, scale 0 to 5, monosodium salt, 50 mg/kg/day); 1 (2×) and 1.5 (2×) in test [2] (day 9, individual rats, 50 mg/kg/day subcutaneously, scale 0 to 5, monosodium salt, 50 mg/kg/day); 0 (2×) and 1 (2×) in test [2] (day 10, individual rats, 50 mg/kg/day subcutaneously, scale 0 to 5, monosodium salt, 50 mg/kg/day). For the same compound, the “Mean maximum clinical score” value in test [2] (50 mg/kg/day subcutaneously, control 4.5) is recorded as “clinical score 3”. In addition, the “DI (disease index)” value in test [2] (50 mg/kg/day subcutaneously, control DI 67.2) is given as “DI - 34.1 Mean maximum”.
